This note sets out measurements from patent US6069257A, “Process for the production of tetrazolylbenzopyrans” (SmithKline Beecham p.l.c., priority 1997, dated 2000).

In this assay the target is T1, leukotriene D4 receptors (guinea pig lung membranes) (Cavia porcellus, UniProt Q2NNR5).
T1 construct: prepared from tissues obtained from male Hartley guinea pigs; from tissue; host or cells: guinea pig lung membranes (male Hartley guinea pigs)
T1 sequence (Q2NNR5 1-340): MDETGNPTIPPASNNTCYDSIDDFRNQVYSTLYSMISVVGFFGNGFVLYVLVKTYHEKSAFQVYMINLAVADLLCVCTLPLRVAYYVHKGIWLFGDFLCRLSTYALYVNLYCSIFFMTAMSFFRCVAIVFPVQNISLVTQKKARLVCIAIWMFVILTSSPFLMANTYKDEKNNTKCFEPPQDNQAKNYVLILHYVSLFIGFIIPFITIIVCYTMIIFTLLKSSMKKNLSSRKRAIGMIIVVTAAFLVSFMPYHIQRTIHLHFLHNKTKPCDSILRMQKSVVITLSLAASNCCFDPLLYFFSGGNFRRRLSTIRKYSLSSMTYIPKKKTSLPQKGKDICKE
In words: [3H]-LTD4 binding studies in guinea pig lung membranes. How it is done:
Experimental Procedure for Binding Studies in Guinea-Pig Lungs with Pranlukast and Metabolites
Non-specific binding was determined in the presence of 0.5 uM cold LTD4. Membranes with bound ligand were captured on Whatman GF/C filters using vacuum filtration and a Brandel cell harvester, then washed with ice-cold 25 mM Tris-HCl. pH 7.4. The filters were placed in scintillation vials with 10 ml Ready Protein (Beckman, Fullerton, Calif., U.S.A.) and the radioactivity was determined by scintillation spectrometry.
All data are presented as Mean±S.E.M. Concentration-response curves (0.3-10,000 nM) for each compound were tested in at least 2 assays and run in duplicate. Cell-bound radioactivity was determined for each sample and non-specific binding was established in the presence of 1 uM unlabeled LTD4 and subtracted from control and drug-treated samples.

The term Ki denotes the dissociation constant of the complex between target and ligand, obtained from inhibition or displacement. Low readings indicate tighter binding, high ones weaker binding. For the molecule `O=C(Nc1cccc2c(=O)cc(-c3nnnn3O)oc12)c1ccc(OCCCCc2ccccc2)cc1` [Example 1, 4-Oxo-8-[4-(4-phenylbutoxy)benzoylamino]-2-(1-hydroxytetrazol-5-yl)-4H-1-benzopyran], the inhibitory constant (Ki) was 0.22 nM.
In the case of `O=C(Nc1cccc2c(=O)cc(-c3nnn(O)n3)oc12)c1ccc(OCCCCc2ccccc2)cc1` [Example 2, 4-Oxo-8-[4-(4-phenylbutoxy)benzoylamino]-2-(2-hydroxytetrazol-5-yl)-4H-1-benzopyran], the Ki stood at 0.53 nM.
